Where a SMILES comes first, the peptide text is derived from it.
Assay: The rate of inactivation expressed as second-order rate constant is independent of concentration.
Conditions: for kinact/KI: read-out: k2

| kinact/KI [M⁻¹ s⁻¹] | k2 [M⁻¹ s⁻¹] | Compound |
| --- | --- | --- |
| 7.4e+06 |  | C[C@H](NC(=O)[C@H](Cc1ccc(O)cc1)NC(=O)OCc1ccccc1)C(=O)CF |
| 17000 | 12000 | CC(C)C[C@H](NC(=O)OCc1ccccc1)C(=O)N[C@@H](Cc1ccc(O)cc1)C(=O)CF (HELM PEPTIDE1{[O=C(OCc1ccccc1)[*:2]].L.Y.[FC[*:1]]}$$$$V2.0) |
